Measured values taken from paper PMC12516379, “Rotamer-Controlled Self-Immolative Linkers Enable Tunable Release of Neurosteroid Oxime Prodrugs” (ACS Medicinal Chemistry Letters, 2025).

Experiments:
[1] = Stability in PBS at room temperature via HPLC (UV); assay type: physicochemical; settings: phosphate-buffered saline (DPBS)
How it was run: (§1)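 Progesterone prodrugs dissolved at 1 mg/mL in PBS (pH 7.03) or 10 mM acetate buffer (pH 5.0), kept at RT and reinjected over time, HPLC-UV AUC at 254 nm. Percent parent remaining; k from ln(%remaining) vs time, pseudo-first-order t1/2 = 0.693/k; duplicates averaged.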

[2] = Aqueous solubility by visual inspection in acetate buffer (pH 5); settings: for solubility: sodium acetate buffer, pH 5, aqueous buffer, thermodynamic from solid
Protocol: For the solubility assessment, acetate buffer (pH 5) was selected as the media of choice to ensure prodrug stability during analysis.
High aqueous solubility was determined by visual inspection of 5 mg solid material in 0.5 mL
sodium acetate buffer solution. This media was selected to ensure stability of prodrugs during
dissolution in 50 mg/mL aqueous media.

[3] = Stability in acetate buffer pH 5.0 at room temperature via HPLC (UV); assay type: physicochemical
How it was run: as §1

[4] = Formation of progesterone oxime 3 from prodrugs in human plasma at 37 °C over 2 h; assay type: in vitro ADME; settings: 2 h period
Protocol: Given the greater biological relevance of plasma, we focused on quantifying the formation of progesterone and allopregnanolone oxime in human plasma at 37 °C over a 2 h period. Results for selected progesterone prodrugs are presented in Figure A–C, illustrating the broad range of plasma cleavage rates as a function of promoiety design (see Figure S13 in Supporting Information for complete data set). Complete stability data for synthesized allopregnanolone prodrugs (Figures S18–S20) are provided in the Supporting Information. Given that their trends closely paralleled the progesterone series, they were not discussed in detail in the main text. […] This unexpected result prompted further investigation using computational modeling, described in the following section. […] Higher pK a values were associated with faster and more complete oxime formation, likely due to enhanced H-bonding which could stabilize the reactive syn-conformer. […] For the heterocyclic pyrrolidine and angle-strained series (Figure C), the release rates closely matched the experimentally determined prodrug half-lives (Table ), which were shorter in human plasma than in PBS. […] Although both 20s and 20t are capable of adopting the reactive syn-rotamer, their self-immolation reactivity diverged due to differences in linker geometry. The cyclopropane in 20s induces angle strain that hinders nucleophilic attack, rendering the compound stable under both PBS and plasma conditions. […] This intriguing result warrants further investigation, with follow-up studies currently in progress. Finally, the nucleophilic capacity of the amine tethers in prodrugs 20w–20z were evaluated based on their ability to cyclize in plasma, as detailed in the Supporting Information Figure S13.
1.2 Stability in Plasma and PBS via LCMS
Procaine (positive control) was purchased from Sigma-Aldrich. HPLC grade MeCN, MeOH, H2O, and FA were purchased from Fischer Scientific. Human plasma (cat. No. […]- […]
0102242) were obtained from BIOIVT. DPBS 1X (no calcium, no magnesium, pH = 7.03) was purchased from Thermo Fischer Scientific. Stock solutions were prepared in 100% DMSO, and suitable dilutions of target analytes were prepared in 0.1% FA /MeCN for method development.
For PBS assay Gibco® Dulbecco’s phosphate-buffered saline (DPBS 1X, no calcium, no magnesium, pH = 7.03) was utilized. All experiments were performed in duplicate and results are presented as the average of two experimental replicates.
Procedure for Plasma Stability Assay
Test compounds and positive control (i.e. procaine) were dissolved in DMSO to make a 10 mM stock solution and subsequently diluted to 500 μM in 50% MeCN and PBS. […] The supernatant was transferred to an LC-MS vial and analyzed by LC/MS-MS. […]

[5] = PBS stability assay at 37 °C via LC-MS/MS; assay type: physicochemical; settings: 37 °C; for half-life at 3 µM: phosphate-buffered saline (DPBS), pH 7.03, PBS
Protocol: (§2) To address this, prodrug stability was further evaluated in human plasma at 37 °C using liquid chromatography–tandem mass spectrometry (LC-MS/MS). For direct comparison, a parallel screen was conducted in PBS under identical conditions (Table ). To prevent premature degradation prior to LC-MS/MS analysis, acetonitrile containing formic acid was used as a quenching solution to acidify and stabilize the prodrugs in vials. […] This limitation in detection, along with the need for a more uniform and broadly applicable assessment across all compounds, prompted us to monitor the formation of the parent oxime as an alternative readout.
(§3) Stability experiments in human plasma and PBS were performed via liquid chromatography-tandem mass spectrometry (LC-MS/MS) to determine and compare rate of cleavage of progesterone prodrugs as well as selected allopregnanolone prodrugs (3 µM) when incubated at 37 °C. All experiments were performed in duplicate and results are presented as the average of two experimental replicates.

[6] = Plasma stability assay at 37 °C via LC-MS/MS, human plasma; assay type: in vitro ADME;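 also: prodrugs at 3 µM incubated in human plasma at 37 °C, intact prodrug quantified by LC-MS/MS over time, values are means of duplicate runs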
Protocol: as §2, §3

[7] = pH 7.03, DPBS pH 7.03, RT, 1 mg/mL, HPLC 254 nm, read-out: t1/2 in PBS buffer at RT (Tables S1-S4) (converted)
[8] = pH 7.03, PBS, rt, read-out: t½: PBS, rt (Table S23) (converted)
[9] = pH 5, acetate buffer pH 5.0, RT, 1 mg/mL, HPLC 254 nm, read-out: t1/2 in acetate buffer at RT (Tables S5-S8) (converted)
[10] = pH 5, acetate buffer pH 5.0, rt, read-out: t½: pH 5.0, rt (Table S23) (converted)

| Structure (SMILES) | half-life at 1 mg/mL [1, 7] [h] | half-life at 1 mg/mL ([1]; pH 7.03, PBS, rt, HPLC (UV), read-out: Half-life (t½) PBS rt (converted)) [h] | half-life at 1 mg/mL [1, 8] [h] | Solubility pH 5.0, rt ([2]; sodium acetate buffer pH 5, rt, visual inspection) | solubility [2] [µg/mL] | half-life at 1 mg/mL [3, 9] [h] | half-life at 1 mg/mL ([3]; pH 5, acetate buffer pH 5.0, rt, HPLC (UV), read-out: Half-life (t½) pH 5.0 rt (converted)) [h] | half-life at 1 mg/mL [3, 10] [h] | Formation/release of oxime 3 in human plasma, in words [4] | PBS, 37 °C %rem. at 2h (Table S23) ([5]; PBS, 2 h) [%] | half-life at 3 µM ([5]; 3 µM, LC-MS/MS, read-out: t1/2 in PBS at 37 °C (Tables S14-S17) (converted)) [h] | half-life at 3 µM ([5]; read-out: PBS, 37 °C t½ (Table S23) (converted)) [h] | t1/2 in human plasma at 37 °C (Tables S10-S13, S18) ([6]; 3 µM, LC-MS/MS) | Plasma, 37 °C %rem. at 2h (Table S23) ([6]; 2 h) | half-life at 3 µM ([6]; human, plasma, read-out: Plasma, 37 °C t½ (Table S23) (converted)) [h] |
| --- | --- | --- | --- | --- | --- | --- | --- | --- | --- | --- | --- | --- | --- | --- | --- |
| CNCCN(CCN1CCCC1)C(=O)O/N=C(\C)[C@H]1CC[C@H]2[C@@H]3CCC4=CC(=O)CC[C@]4(C)[C@H]3CC[C@]12C.O=C(O)C(F)(F)F [20h] | 7.23 ± 1.9 | 7.23 | 7.23 | degrades | < 10000 | 105 | 105 | 105 | rapid, first-order release |  |  |  |  |  |  |
| C/C(=N\OC(=O)N(C)CC[C@@H]1CCCN1)[C@H]1CC[C@H]2[C@@H]3CCC4=CC(=O)CC[C@]4(C)[C@H]3CC[C@]12C.O=C(O)C(F)(F)F [20n] | > 24 |  | > 24 |  | > 10000 | > 168 |  | > 168 | low levels of oxime | 77 | 26.5 | 26.5 | stable | stable | > 24 |
